The record followed here is patent publication US20110230472A1, “RING-FUSED AZOLE DERIVATIVE HAVING PI3K-INHIBITING ACTIVITY” (Shionogi & Co., Ltd., priority 2008, published 2011).

Structures are written as SMILES.

PI-3 kinase γ, sequence (P48736 whole entry): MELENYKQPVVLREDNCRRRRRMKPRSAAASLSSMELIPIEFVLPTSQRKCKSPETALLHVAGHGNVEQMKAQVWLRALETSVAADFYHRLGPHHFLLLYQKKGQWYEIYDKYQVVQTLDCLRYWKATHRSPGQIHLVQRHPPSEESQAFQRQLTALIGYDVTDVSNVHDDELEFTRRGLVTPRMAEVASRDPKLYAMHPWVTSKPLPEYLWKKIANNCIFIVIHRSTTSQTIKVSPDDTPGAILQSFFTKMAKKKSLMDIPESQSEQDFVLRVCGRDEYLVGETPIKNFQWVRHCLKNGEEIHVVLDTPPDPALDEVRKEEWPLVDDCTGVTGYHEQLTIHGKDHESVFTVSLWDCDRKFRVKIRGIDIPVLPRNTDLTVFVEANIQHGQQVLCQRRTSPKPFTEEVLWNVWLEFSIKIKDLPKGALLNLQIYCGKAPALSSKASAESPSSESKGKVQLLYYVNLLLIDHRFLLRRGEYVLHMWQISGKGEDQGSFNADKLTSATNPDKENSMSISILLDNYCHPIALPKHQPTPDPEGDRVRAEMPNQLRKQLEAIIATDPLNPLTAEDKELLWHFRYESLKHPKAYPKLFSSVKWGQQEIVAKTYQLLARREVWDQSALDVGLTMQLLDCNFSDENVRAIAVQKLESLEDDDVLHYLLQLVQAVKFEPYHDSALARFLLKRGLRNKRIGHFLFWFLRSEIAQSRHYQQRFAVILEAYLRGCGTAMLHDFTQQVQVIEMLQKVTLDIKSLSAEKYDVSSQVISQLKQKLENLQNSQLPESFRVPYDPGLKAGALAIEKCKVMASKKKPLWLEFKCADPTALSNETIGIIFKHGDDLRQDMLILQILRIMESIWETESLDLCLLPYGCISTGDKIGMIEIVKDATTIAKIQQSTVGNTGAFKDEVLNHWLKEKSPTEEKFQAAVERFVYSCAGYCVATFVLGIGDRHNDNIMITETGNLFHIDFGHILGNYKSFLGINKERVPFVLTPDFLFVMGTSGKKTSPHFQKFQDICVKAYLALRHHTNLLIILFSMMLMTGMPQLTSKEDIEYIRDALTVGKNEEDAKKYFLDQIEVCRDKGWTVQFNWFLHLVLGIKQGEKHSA

The first experiment has as its target PI-3 kinase γ (Homo sapiens, UniProt P48736). Briefly: PI3Kγ inhibitory activity, PI3-kinase HTRF assay (inhibition ratio). It counts as biochemical. As to conditions: 0.5 h; PI3Kγ, compound at 10 μM. Here is the method:
The PI3Kγ inhibitory activity of a compound was evaluated using PI3-kinase HTRF™ assay (Millipore) according to the following procedure:
To each well of a testing plate, 5 μL of a compound solution containing 10% DMSO (200 μmol/L or 40 μmol/L as the concentration of the compound), 5 μL of a substrate solution (40 μmol/L phosphatidylinositol (4,5)-bisphosphate, 20 mmol/L MgCl2, 10 mmol/L DTT), and 5 μL of a enzyme solution (80 μg/mL PI-3 kinase γ, 10 mmol/L MgCl2, 5 mmol/L DTT) were added, and then allowed to stand for 10 minutes.
Then, 5 μL of a reaction solution (40 μmol/L ATP, 10 mmol/L MgCl2, 5 mmol/L DTT) was added thereto. After reacting for 30 minutes at room temperature, 5 μL of a solution containing EDTA and biotinylated phosphatidylinositol (3,4,5)-triphosphate were added to quench the reaction.
5 μL of a detection reagent containing a europium-labeled anti-GST antibody, the GST-tagged PH domain, and allophycocyanin-labeled streptavidin was added thereto. After 18 hours, HTRF (excitation wavelength: 330 nm, measured wavelengths: 620 nm and 665 nm) was measured.
HTRF ratio was defined as the value obtained by dividing the amount of fluorescence obtained at the measured wavelength 665 nm by the amount of fluorescence obtained at 620 nm. The HTRF ratio in the absence of a compound was defined as 100% activity and the HTRF ratio in the absence of PI-3 kinase γ was defined as 0% activity to calculate an inhibition ratio which was defined as the PI3Kγ inhibitory activity of a compound at 50 μmol/L or 10 μmol/L.
(In general: TR-FRET usually uses a lanthanide donor and a delayed reading to cut background.)
Regarding `CC(=O)Nc1cc2n(n1)CCN2c1ccc2c(c1)CCC2=O` [Compound I-283], the inhibition (commonly the percentage by which the read-out fell short of the control) at 10 µM was at least 95%.
On the same count and under the same terms, next, `COc1cc(N2CCc3nc(NC(=O)Cc4cccc(C(F)(F)F)c4)sc3C2)nc(OC)n1` [Compound I-269]: at least 95%.
Same read-out and setting: next, `COc1cc(N2CCc3nc(NC(=O)NCC(=O)NCC(C)(C)C)sc3C2)nc(OC)n1` [Compound I-285]: at least 95%; `COc1cc(N2CCc3nc(NC(=O)Cc4cc(OC)c(OC)c(OC)c4)sc3C2)nc(OC)n1` [Compound I-268]: at least 95%.
With `COc1cc(C(=O)Nc2nc3c(s2)CN(c2cc(OC)nc(OC)n2)CC3)on1` [Compound I-282], the inhibition at 10 µM is 86%.
Still for that read-out and setting: next, `COc1cc(N2CCc3nc(NC(=O)NCCCN4CCCC4=O)sc3C2)nc(OC)n1` [Compound I-253]: 82%.

The same experiment, now with this note: 0.5 h; PI3Kγ, compound at 50 μM.
For the compound `CNC(=O)Nc1cc2n(n1)CCN2c1cc(Br)cc(C(=O)N2CCN(C(=O)OC(C)(C)C)CC2)c1` [Compound I-182], the inhibition at 50 µM came to 79%.
On to `CNC(=O)Nc1cc2n(n1)CCN2c1ccc(Cl)cc1` [Compound I-102], for which the inhibition at 50 µM is at least 95%.
Regarding `CC(=O)NCCC(=O)Nc1cc2n(n1)CCN2c1cccc(Cl)c1` [Compound I-244], the inhibition at 50 µM worked out at 87%.
Same read-out and setting: next, `O=C(Nc1cc2n(n1)CCN2c1cccc(Cl)c1)c1nccs1` [Compound I-245]: 76%; `COc1cccc(N2CCn3nc(NC(C)=O)cc32)c1` [Compound I-139]: at least 95%.
On to `COc1ccc(Nc2cc3n(n2)CCN3C(=O)c2ccccc2)cc1` [Compound I-4], for which the inhibition at 50 µM was at least 95%.
Same read-out and setting: next, `CNC(=O)Nc1nc2c(s1)CN(c1cc(C(=O)NC3CCCC3)nc(Cl)n1)CC2` [Compound I-110]: at least 95%.
Still for that read-out and setting: next, `CNC(=O)Nc1cc2n(n1)CCN2c1cc(Br)cc(C(=O)OC(C)(C)C)c1` [Compound I-167]: 92%.
Consider `CC(C)(C)OC(=O)N1CCc2nc(NC(=O)Nc3cccc(Cl)c3)sc2C1` [Compound I-117], for which the inhibition at 50 µM was found to be 76%.
Still for that read-out and setting: the result for `CNC(=O)Nc1nc2c(s1)CN(c1nccc(C(F)(F)F)n1)CC2` [Compound I-95] reads 93%; that for `CNC(=O)Nc1cc2n(n1)CCN2c1cc(Br)cc(C(=O)Nc2cccc(C(=O)OC(C)(C)C)c2)c1` [Compound I-175], 94%; that for `CCOC(=O)c1cccc(N2CCn3nc(NC(=O)NC)cc32)c1` [Compound I-83], at least 95%.
On the same count and under the same terms, next, `Nc1cc(N2CCc3nc(NC(=O)c4cccc(Cl)c4)sc3C2)nc(Cl)n1` [Compound I-137]: 87%; `COc1cc(N2CCc3nc(NC(=O)C(=O)c4ccccc4)sc3C2)nc(OC)n1` [Compound I-259]: 89%.
On the same count and under the same terms, next, `CNC(=O)Nc1cc2n(n1)CCN(c1cccc(C(=O)OC)c1)C2` [Compound I-81]: 75%; `CNC(=O)Nc1cc2n(n1)CCN2c1ccc(C(=O)N(C)C)cc1` [Compound I-169]: at least 95%.
For `CNC(=O)Nc1cc2n(n1)CCN2c1cccc(-c2cnco2)c1` [Compound I-84], the inhibition at 50 µM is at least 95%.
The same measure, in the same setting: the result for `CNC(=O)Nc1cc2n(n1)CCN2c1cccc(CC(=O)OC(C)(C)C)c1` [Compound I-152] reads at least 95%; that for `CNC(=O)Nc1cc2n(n1)CCN2c1ccc(F)c(C(=O)OC(C)(C)C)c1` [Compound I-184], at least 95%.
On to `CNC(=O)Nc1cc2n(n1)CCN2c1cc(CCc2ccccc2)cc(C(=O)N2CCOCC2)c1` [Compound I-260], for which the inhibition at 50 µM was determined as 93%.
Same read-out and setting: next, `COC(=O)c1cc(N2CCc3nc(NC(C)=O)sc3C2)nc(Cl)n1` [Compound I-116]: at least 95%.

The experiment is the same for the next values; noted with them: 0.5 h; compound at 10 μmol/L.
With `COc1nc(Cl)cc(N2CCc3nc(NC(C)=O)sc3C2)n1` [Compound I-334], the inhibition at 10 µM is 88%.
The same measure, in the same setting: the result for `CC(=O)Nc1nc2ccn(-c3cccc(Cl)c3)c2s1` [Compound I-471] reads 91%; that for `CN1CCc2cc(N3CCn4nc(NC(=O)c5ccc(N6CCCC6)s5)cc43)ccc2C1=O` [Compound I-371], at least 95%; that for `Cc1cccc(C(=O)N2CCc3nc(NC(=O)Nc4ccccc4C(=O)NC(C)C)sc3C2)c1` [Compound I-514], 76%.
Same read-out and setting: the result for `Nc1cc2n(n1)CCN2c1ccc2cnccc2c1` [Compound I-316] reads 75%; that for `CN1CCc2cc(N3CCn4nc(NC(=O)c5cccc(C(=O)O)c5)cc43)ccc2C1=O` [Compound I-472], at least 95%; that for `COc1cc(N2CCc3nc(NC(=O)C4CN(C(=O)OC(C)(C)C)C4)sc3C2)nc(OC)n1` [Compound I-529], 82%.
On the same count and under the same terms, next, `CN1CCc2cc(N3CCn4nc(NC(=O)c5ccc(NC(=O)OC(C)(C)C)cc5)cc43)ccc2C1=O` [Compound I-480]: 86%; `CN1CCc2cc(N3CCn4nc(NC(=O)NCC(=O)O)cc43)ccc2C1=O` [Compound I-522]: 94%.
Consider `CN1CCc2cc(N3CCn4nc(NC(=O)c5cnc(Br)s5)cc43)ccc2C1=O` [Compound I-377], for which the inhibition at 10 µM was at least 95%.
Take `CN1CCc2cc(N3CCn4nc(NC(=O)c5ccc(C(=O)NCC(=O)OC(C)(C)C)s5)cc43)ccc2C1=O` [Compound I-411]: the inhibition at 10 µM is at least 95%.
Turning to `CN1CCc2cc(N3CCn4nc(NC(=O)c5cnc(N6CCC[C@H]6C(=O)O)s5)cc43)ccc2C1=O` [Compound I-536], the inhibition at 10 µM is at least 95%.
On the same count and under the same terms, the result for `CN1CCc2cc(N3CCn4nc(NC(=O)c5ccc(C(=O)O)s5)cc43)ccc2C1=O` [Compound I-391] reads at least 95%; that for `CC(C)NC(=O)Cc1cc(C(=O)Nc2cc3n(n2)CCN3c2ccc3c(c2)CCN(C)C3=O)cs1` [Compound I-495], at least 95%; that for `COc1cc(N2CCc3nc(NC(=O)NC4CCCCC4)sc3C2)nc(OC)n1` [Compound I-294], 84%.
On the same count and under the same terms, next, `CC(C)NS(=O)(=O)c1cc(C(=O)Nc2cc3n(n2)CCN3c2ccc3c(c2)CCN(C)C3=O)cs1` [Compound I-428]: 90%; `COc1cc(N2CCc3nc(NC(=O)NCCC(=O)N4CCOCC4(C)C)sc3C2)nc(OC)n1` [Compound I-328]: 87%; `CCOC(=O)CCCCC(=O)Nc1cc2n(n1)CCN2c1cccc(OC)c1` [Compound I-307]: 86%.
On the same count and under the same terms, the result for `COc1cc(N2CCc3nc(NC(=O)Nc4cccs4)sc3C2)nc(OC)n1` [Compound I-296] reads 88%; that for `COc1cccc(N2CCn3nc(NC(=O)CCCCC(=O)O)cc32)c1` [Compound I-315], at least 95%.
Regarding `Cc1csc(C(=O)Nc2cc3n(n2)CCN3c2ccc3c(c2)CCN(C)C3=O)c1` [Compound I-361], the inhibition at 10 µM worked out at 80%.
On the same count and under the same terms, next, `CNS(=O)(=O)c1cc(C(=O)Nc2cc3n(n2)CCN3c2ccc3c(c2)CCN(C)C3=O)cs1` [Compound I-437]: at least 95%.

Staying with this experiment, now noted: 0.5 h; compound at 50 μmol/L.
Consider `CC(=O)Nc1cc2n(n1)CCN2c1ccc2c(c1)CCN(C(=O)OC(C)(C)C)C2` [Compound I-301], for which the inhibition at 50 µM is at least 95%.
Same read-out and setting: the result for `CN1CCc2cc(N3CCn4nc(NC(=O)C5CCN(C(=O)OC(C)(C)C)C5)cc43)ccc2C1=O` (stereo not drawn) [Compound I-350] reads at least 95%.
